Laboratory results reported in the CheMixHub viscosity set.
± gives the uncertainty stated by the source.

Experiment: xn = mol fraction of the nth substance listed

CCC(=O)O + Nc1ccccc1
Conditions | viscosity [mPa·s]
298.15 K, 101 kPa, x1 = 0.0996 | 4.218 ± 0.04
298.15 K, 101 kPa, x1 = 0.2015 | 4.652 ± 0.045
298.15 K, 101 kPa, x1 = 0.2966 | 5.177 ± 0.051
298.15 K, 101 kPa, x1 = 0.388 | 5.87 ± 0.059
298.15 K, 101 kPa, x1 = 0.4955 | 6.898 ± 0.072
298.15 K, 101 kPa, x1 = 0.5962 | 7.775 ± 0.083
298.15 K, 101 kPa, x1 = 0.716 | 7.294 ± 0.077
298.15 K, 101 kPa, x1 = 0.7994 | 5.282 ± 0.053
298.15 K, 101 kPa, x1 = 0.895 | 2.477 ± 0.023
308.15 K, 101.33 kPa, x1 = 0.1243 | 2.912 ± 0.054
308.15 K, 101.33 kPa, x1 = 0.2382 | 3.203 ± 0.055
308.15 K, 101.33 kPa, x1 = 0.3507 | 3.59 ± 0.056
308.15 K, 101.33 kPa, x1 = 0.4545 | 3.971 ± 0.057
308.15 K, 101.33 kPa, x1 = 0.5568 | 4.468 ± 0.059
308.15 K, 101.33 kPa, x1 = 0.6544 | 4.762 ± 0.06
308.15 K, 101.33 kPa, x1 = 0.7452 | 4.169 ± 0.058
308.15 K, 101.33 kPa, x1 = 0.7903 | 3.402 ± 0.056
308.15 K, 101.33 kPa, x1 = 0.8345 | 2.792 ± 0.054
308.15 K, 101.33 kPa, x1 = 0.8774 | 2.008 ± 0.052
308.15 K, 101.33 kPa, x1 = 0.918 | 1.561 ± 0.051
308.15 K, 101.33 kPa, x1 = 0.9595 | 1.168 ± 0.051

CCC(=O)O + C1CCCCC1
303.15 K, 101 kPa
Conditions | viscosity [mPa·s]
x2 = 0.1973 | 0.8074 ± 0.0096
x2 = 0.286 | 0.771 ± 0.0092
x2 = 0.384 | 0.7319 ± 0.0087
x2 = 0.4987 | 0.7121 ± 0.0085
x2 = 0.5994 | 0.7197 ± 0.0086
x2 = 0.6998 | 0.7155 ± 0.0085
x2 = 0.8991 | 0.7582 ± 0.009

CCC(=O)O + O
viscosity [mPa·s]
Conditions | x1 = 0.0263 | x1 = 0.0944 | x1 = 0.196 | x1 = 0.362 | x1 = 0.686
293.15 K, 101.33 kPa | 1.322 ± 0.013 | 1.977 ± 0.02 | 2.601 ± 0.026 | – | –
298.15 K, 101 kPa | 1.443 ± 0.29 | 2.821 ± 0.57 | 3.483 ± 0.7 | 3.351 ± 0.68 | 2.816 ± 0.57
308.15 K, 101 kPa | 1.08 ± 0.22 | 1.945 ± 0.39 | 2.418 ± 0.49 | 2.393 ± 0.48 | 2.082 ± 0.42
313.15 K, 101.33 kPa | 0.858 ± 0.0086 | 1.188 ± 0.012 | 1.552 ± 0.016 | – | –
318.15 K, 101 kPa | 0.856 ± 0.17 | 1.434 ± 0.29 | 1.789 ± 0.36 | 1.789 ± 0.36 | 1.592 ± 0.32

Nc1cccc(Cl)c1 + CCCCCCCO
viscosity [mPa·s], 101 kPa
Conditions | x1 = 0.1306 | x1 = 0.2526 | x1 = 0.3669 | x1 = 0.4741 | x1 = 0.5749 | x1 = 0.6698 | x1 = 0.7593 | x1 = 0.844 | x1 = 0.9241
303.15 K | 4.923 ± 0.22 | 4.794 ± 0.21 | 4.684 ± 0.21 | 4.589 ± 0.2 | 4.509 ± 0.2 | 4.442 ± 0.2 | 4.385 ± 0.19 | 4.336 ± 0.19 | 4.292 ± 0.19
308.15 K | 4.229 ± 0.19 | 4.143 ± 0.18 | 4.072 ± 0.18 | 4.014 ± 0.18 | 3.966 ± 0.18 | 3.927 ± 0.17 | 3.895 ± 0.17 | 3.869 ± 0.17 | 3.853 ± 0.17
313.15 K | 3.647 ± 0.16 | 3.585 ± 0.16 | 3.538 ± 0.16 | 3.501 ± 0.16 | 3.473 ± 0.15 | 3.451 ± 0.15 | 3.438 ± 0.15 | 3.433 ± 0.15 | 3.432 ± 0.15
318.15 K | 3.346 ± 0.15 | 3.269 ± 0.15 | 3.207 ± 0.14 | 3.156 ± 0.14 | 3.114 ± 0.14 | 3.079 ± 0.14 | 3.051 ± 0.14 | 3.032 ± 0.14 | 3.023 ± 0.14

NN + O
Conditions | viscosity [mPa·s]
293.15 K, 101.3 kPa, x1 = 0.0526 | 1.11 ± 0.04
293.15 K, 101.3 kPa, x1 = 0.1045 | 1.26 ± 0.04
293.15 K, 101.3 kPa, x1 = 0.1502 | 1.4 ± 0.04
293.15 K, 101.3 kPa, x1 = 0.2047 | 1.57 ± 0.05
293.15 K, 101.3 kPa, x1 = 0.3013 | 1.8 ± 0.06
293.15 K, 101.3 kPa, x1 = 0.3512 | 1.88 ± 0.06
293.15 K, 101.3 kPa, x1 = 0.3967 | 1.96 ± 0.06
293.15 K, 101.3 kPa, x1 = 0.4526 | 1.92 ± 0.06
293.15 K, 101.3 kPa, x1 = 0.4938 | 1.89 ± 0.06
293.15 K, 101.3 kPa, x1 = 0.5997 | 1.71 ± 0.05
293.15 K, 101.3 kPa, x1 = 0.7032 | 1.51 ± 0.05
293.15 K, 101.3 kPa, x1 = 0.8022 | 1.28 ± 0.04
293.15 K, 101.3 kPa, x1 = 0.8961 | 1.11 ± 0.04
303 K, 101 kPa, x1 = 0.1 | 1.009 ± 0.04
303 K, 101 kPa, x1 = 0.2 | 1.181 ± 0.045
303 K, 101 kPa, x1 = 0.3 | 1.357 ± 0.05
303 K, 101 kPa, x1 = 0.4 | 1.364 ± 0.049
303 K, 101 kPa, x1 = 0.55 | 1.43 ± 0.049
303 K, 101 kPa, x1 = 0.6 | 1.41 ± 0.048
303 K, 101 kPa, x1 = 0.7 | 1.34 ± 0.044
303 K, 101 kPa, x1 = 0.8 | 1.21 ± 0.039
303 K, 101 kPa, x1 = 0.9 | 1.02 ± 0.033
313 K, 101 kPa, x1 = 0.1 | 0.869 ± 0.034
313 K, 101 kPa, x1 = 0.2 | 0.989 ± 0.037
313 K, 101 kPa, x1 = 0.3 | 1.138 ± 0.042
313 K, 101 kPa, x1 = 0.4 | 1.148 ± 0.041
313 K, 101 kPa, x1 = 0.55 | 1.19 ± 0.041
313 K, 101 kPa, x1 = 0.6 | 1.17 ± 0.039
313 K, 101 kPa, x1 = 0.7 | 1.1 ± 0.036
313 K, 101 kPa, x1 = 0.8 | 0.98 ± 0.032
313 K, 101 kPa, x1 = 0.9 | 0.83 ± 0.027

[K+].[O]=[Mn](=[O])(=[O])[O-] + [2H]O[2H]
viscosity [mPa·s], 101 kPa
Conditions | x1 = 0.0021 | x1 = 0.0034 | x1 = 0.0052 | x1 = 0.0062
298.15 K | 1.101 ± 0.009 | 1.092 ± 0.009 | 1.079 ± 0.009 | 1.082 ± 0.009
308.15 K | 0.873 ± 0.007 | 0.861 ± 0.007 | 0.853 ± 0.007 | 0.85 ± 0.007
318.15 K | 0.717 ± 0.006 | 0.709 ± 0.006 | 0.703 ± 0.006 | 0.704 ± 0.006

Nc1cccc(Cl)c1 + Brc1ccccc1
100 kPa
Conditions | viscosity [mPa·s]
313.15 K, x1 = 0.6782 | 2.875 ± 0.1
318.15 K, x1 = 0.0902 | 1.155 ± 0.1

C1C[C@@H]2[C@H]3CC[C@H](C3)[C@@H]2C1 + c1ccc2c(c1)CCCC2
viscosity [mPa·s], 100 kPa
Conditions | x1 = 0.1003 | x1 = 0.1991 | x1 = 0.3022 | x1 = 0.407 | x1 = 0.4996 | x1 = 0.5992 | x1 = 0.7019 | x1 = 0.7987 | x1 = 0.8983
293.15 K | 2.201 ± 0.047 | 2.214 ± 0.047 | 2.254 ± 0.048 | 2.299 ± 0.05 | 2.355 ± 0.051 | 2.438 ± 0.053 | 2.543 ± 0.056 | 2.668 ± 0.06 | 2.807 ± 0.063
298.15 K | 1.994 ± 0.042 | 2.008 ± 0.043 | 2.043 ± 0.044 | 2.088 ± 0.045 | 2.139 ± 0.047 | 2.214 ± 0.049 | 2.307 ± 0.051 | 2.416 ± 0.054 | 2.546 ± 0.058
303.15 K | 1.816 ± 0.039 | 1.831 ± 0.039 | 1.864 ± 0.04 | 1.904 ± 0.041 | 1.952 ± 0.042 | 2.019 ± 0.044 | 2.106 ± 0.047 | 2.202 ± 0.049 | 2.319 ± 0.052
308.15 K | 1.664 ± 0.035 | 1.678 ± 0.036 | 1.708 ± 0.037 | 1.746 ± 0.038 | 1.79 ± 0.039 | 1.851 ± 0.041 | 1.929 ± 0.043 | 2.018 ± 0.045 | 2.122 ± 0.048
313.15 K | 1.531 ± 0.033 | 1.545 ± 0.033 | 1.574 ± 0.034 | 1.608 ± 0.035 | 1.648 ± 0.036 | 1.704 ± 0.037 | 1.775 ± 0.039 | 1.855 ± 0.041 | 1.95 ± 0.044
318.15 K | 1.414 ± 0.03 | 1.428 ± 0.031 | 1.454 ± 0.031 | 1.486 ± 0.032 | 1.523 ± 0.033 | 1.574 ± 0.035 | 1.639 ± 0.036 | 1.712 ± 0.038 | 1.798 ± 0.041
323.15 K | 1.311 ± 0.028 | 1.325 ± 0.028 | 1.349 ± 0.029 | 1.379 ± 0.03 | 1.413 ± 0.031 | 1.459 ± 0.032 | 1.519 ± 0.034 | 1.586 ± 0.035 | 1.663 ± 0.038

[F-].[Na+] + [2H]O[2H]
viscosity [mPa·s], 101 kPa
Conditions | 298.15 K | 308.15 K | 318.15 K
x1 = 0.0054 | 1.159 ± 0.013 | 0.913 ± 0.01 | 0.747 ± 0.008
x1 = 0.0122 | 1.246 ± 0.014 | 0.98 ± 0.011 | 0.8 ± 0.009
x1 = 0.0163 | 1.326 ± 0.015 | 1.043 ± 0.012 | 0.857 ± 0.01

Nc1cccc(Cl)c1 + NCCO
Conditions | viscosity [mPa·s]
308.15 K, 100 kPa, x1 = 0.3619 | 8.885 ± 1

CCC(=O)O + CCC(C)=O
viscosity [mPa·s], 101 kPa
Conditions | x2 = 0.0847 | x2 = 0.1723 | x2 = 0.2585 | x2 = 0.357 | x2 = 0.4544 | x2 = 0.5554 | x2 = 0.6602 | x2 = 0.7691 | x2 = 0.8822
293.15 K | 1.038 ± 0.027 | 0.9722 ± 0.025 | 0.9093 ± 0.023 | 0.8393 ± 0.022 | 0.7718 ± 0.02 | 0.7038 ± 0.018 | 0.6354 ± 0.016 | 0.5665 ± 0.015 | 0.4974 ± 0.013
303.15 K | 0.9022 ± 0.023 | 0.846 ± 0.022 | 0.7921 ± 0.02 | 0.7324 ± 0.019 | 0.6751 ± 0.017 | 0.6177 ± 0.016 | 0.556 ± 0.014 | 0.5027 ± 0.013 | 0.4455 ± 0.012
313.15 K | 0.7975 ± 0.021 | 0.7494 ± 0.019 | 0.7031 ± 0.018 | 0.6516 ± 0.017 | 0.6019 ± 0.016 | 0.5519 ± 0.014 | 0.5015 ± 0.013 | 0.4508 ± 0.012 | 0.4 ± 0.01
